Results published in patent US8628771B2, “CA IX-specific inhibitors” (Institute of Virology Slovak Academy of Sciences, priority 2002, dated 2014).
Read-outs that look alike come from different tables or passages of the source.

Columns and labels:
hCA IX = hCA IX (Homo sapiens, UniProt Q16790); experiment: CA CO2 hydrase activity assay, tumor-associated isozyme hCA IX
Procedure: An SX.18MV-R Applied Photophysics stopped-flow instrument has been used for assaying the CA CO2 hydration activity assays [44]. […] Inhibitor and enzyme solutions were preincubated together for 10 min at room temperature prior to assay, in order to allow for the formation of the E-I complex.

human red cells = details: for [sulfonamide] in red blood cells, EI / [sulfonamide] in red blood cells, ES / [sulfonamide] in red blood cells, HPLC: human, 2 mM, pH 7.4
hCA I = target: T1, hCA I (Homo sapiens, UniProt P00915); experiment: CA esterase activity assay, isozyme hCA I; assay type: biochemical
T1 construct: made in house; host or cells: Escherichia coli BL21 (DE3)
Procedure: Human CA I and CA II cDNAs were expressed in Escherichia coli strain BL21 (DE3) from the plasmids pACA/hCA I and pACA/hCA II described by Lindskog's group [54].
Non-enzymatic hydrolysis rates were always subtracted from the observed rates. […] Inhibitor and enzyme solutions were preincubated together for 10 min at room temperature prior to assay, in order to allow for the formation of the E-I complex. The inhibition constant KI was determined as described in references [44, 76].

hCA II = target: T2, hCA II (Homo sapiens, UniProt P00918); experiment: CA esterase activity assay, isozyme hCA II; assay type: biochemical
T2 construct: made in house; host or cells: Escherichia coli BL21 (DE3)

bCA IV = target: T3, bCA IV (Bos taurus, UniProt Q95323); experiment: CA esterase activity assay, isozyme bCA IV; assay type: biochemical, bovine
T3 construct: CA IV was isolated from bovine lung microsomes as described by Maren et al; from tissue; host or cells: bovine lung microsomes
T3 sequence (Q95323 19-284): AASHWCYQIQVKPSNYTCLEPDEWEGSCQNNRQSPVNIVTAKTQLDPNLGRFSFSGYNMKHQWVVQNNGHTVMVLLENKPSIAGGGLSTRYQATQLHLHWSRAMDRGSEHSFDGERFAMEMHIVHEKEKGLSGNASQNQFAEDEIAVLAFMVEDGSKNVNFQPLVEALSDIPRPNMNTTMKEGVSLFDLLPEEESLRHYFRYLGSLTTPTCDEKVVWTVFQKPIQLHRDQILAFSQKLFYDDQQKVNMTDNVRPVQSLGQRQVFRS

[1] = read-out: KI hCA IX, Table 3, catalytic domain of the human, cloned isozyme, CO2 hydrase assay method
[2] = Table 3, human (cloned) isozymes, esterase assay method, read-out: KI hCA I
[3] = Table 3, human (cloned) isozymes, esterase assay method, read-out: KI hCA II
[4] = Table 3, from bovine lung microsomes, esterase assay method, read-out: KI bCA IV
[5] = Tables 1 and 3, read-out: KI against CA II
[6] = Table 3, read-out: KI against CA IV
[7] = read-out: KI hCA IX, Table 2, catalytic domain of the human, cloned isozyme
[8] = Table 2, human (cloned) isozymes, read-out: KI hCA I
[9] = Table 2, human (cloned) isozymes, read-out: KI hCA II
[10] = Table 2, from bovine lung microsomes, read-out: KI bCA IV
[11] = KI against CA IX, text discussion of Tables 1-3
[12] = Table 3, read-out: KI against CA I

T1 sequence (P00915 whole entry): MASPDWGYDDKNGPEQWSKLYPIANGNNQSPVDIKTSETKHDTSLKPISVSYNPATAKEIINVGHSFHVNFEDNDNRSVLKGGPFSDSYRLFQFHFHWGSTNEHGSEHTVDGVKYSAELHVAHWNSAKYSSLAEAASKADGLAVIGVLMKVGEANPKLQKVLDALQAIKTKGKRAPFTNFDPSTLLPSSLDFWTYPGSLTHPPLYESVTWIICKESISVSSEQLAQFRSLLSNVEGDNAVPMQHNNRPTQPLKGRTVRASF

SMILES | Ki (hCA IX) | Ki (hCA IX; [1]) | Ki (hCA I; [2]) | Ki (hCA II; [3]) | Ki (bCA IV; [4]) | Ki (hCA II; [5]) | Ki (hCA IX; [7]) | Ki (hCA I; [8]) | Ki (hCA II; [9]) | Ki (bCA IV; [10]) | other results
Cc1cc(C)[n+](-c2ccc(S(=O)(=O)Nc3nnc(S(N)(=O)=O)s3)cc2)c(C)c1C [Compound 89, 1-N-[5-Sulfamoyl-1,3,4-thiadiazol-2-yl-(aminosulfonyl-4-phenyl)]-2,3,4,6-tetramethylpyridinium perchlorate] | 3 to 9 nM | 5 nM | 3 nM | 0.3 nM | 2.4 nM |  |  |  |  |  | amount detected within the blood red cells (membrane penetration) (human red cells): detected only in very small amounts; [sulfonamide] in red blood cells, EI (human red cells; 30 min): 0.5 µM; [sulfonamide] in red blood cells, ES (human red cells; 30 min): 0.2 µM; [sulfonamide] in red blood cells, HPLC (human red cells; 30 min): 0.3 µM; [sulfonamide] in red blood cells, EI (human red cells; 60 min): 0.4 µM; [sulfonamide] in red blood cells, ES (human red cells; 60 min): 0.6 µM; [sulfonamide] in red blood cells, HPLC (human red cells; 60 min): 0.3 µM
Cc1cc(C)[n+](-c2ccc(S(=O)(=O)Nc3nnc(S(N)(=O)=O)s3)cc2)c(C)c1 [Compound 71, 1-N-[5-Sulfamoyl-1,3,4-thiadiazol-2-yl-(aminosulfonyl-4-phenyl)]-2,4,6-trimethyl-pyridinium perchlorate] | 3 to 9 nM | 3 nM | 4 nM | 0.26 nM | 2.1 nM |  |  |  |  |  | times more effective than benzolamide in inhibiting CA IX (hCA IX; ratio of KI values): ~13; amount detected within the blood red cells (membrane penetration) (human red cells): detected only in very small amounts; [sulfonamide] in red blood cells, EI (human red cells; 30 min): 0.5 µM; [sulfonamide] in red blood cells, ES (human red cells; 30 min): 0.5 µM; [sulfonamide] in red blood cells, HPLC (human red cells; 30 min): 0.3 µM; [sulfonamide] in red blood cells, EI (human red cells; 60 min): 0.3 µM; [sulfonamide] in red blood cells, ES (human red cells; 60 min): 0.5 µM; [sulfonamide] in red blood cells, HPLC (human red cells; 60 min): 0.4 µM; Ki (hCA II; read-out: KI against CA II): 0.2 to 1.61 nM
NS(=O)(=O)c1nnc(NS(=O)(=O)c2ccc(-[n+]3c(-c4ccccc4)cc(-c4ccccc4)cc3-c3ccccc3)cc2)s1 [Compound 87, 1-N-[5-Sulfamoyl-1,3,4-thiadiazol-2-yl-(aminosulfonyl-4-phenyl)]-2,4,6-triphenyl-pyridinium perchlorate] | 12 to 35 nM | 12 nM | 5 nM | 5.96 nM | 5.6 nM | 3.13 to 5.96 nM |  |  |  |  | Ki (bCA IV; [6]): 5.2 to 10.3 nM
CCc1cc(-c2ccccc2)cc(-c2ccccc2)[n+]1Cc1ccc(S(N)(=O)=O)cc1.[O-][Cl+3]([O-])([O-])[O-] [Compound 47] |  |  |  |  |  |  | 79 nM | 42000 nM | 314 nM | 983 nM | 
NS(=O)(=O)c1ccc(CC[n+]2c(-c3ccccc3)cccc2-c2ccccc2)cc1 [Compound 69] | 64 to 135 nM |  |  |  |  |  | 81 nM | 265000 nM |  | 1900 nM | Ki (hCA II; read-out: KI hCA II): 420 nM
Cc1cc(C)[n+](-c2ccc(S(N)(=O)=O)cc2)c(C)c1C [Compound 38] | 64 to 135 nM |  |  |  |  |  | 72 nM | 5000 nM | 40 nM | 61 nM | 
Cc1cc(-c2ccccc2)cc(-c2ccccc2)[n+]1-c1ccc(S(=O)(=O)Nc2nnc(S(N)(=O)=O)s2)cc1 [Compound 80, 1-N-[5-Sulfamoyl-1,3,4-thiadiazol-2-yl-(aminosulfonyl-4-phenyl)]-2-methyl-4,6-diphenylpyridinium perchlorate] | 12 to 35 nM | 24 nM | 4 nM | 1.21 nM | 3 nM | 0.2 to 1.61 nM |  |  |  |  | 
CCCCc1cc(-c2ccccc2)cc(CCCC)[n+]1-c1ccc(S(=O)(=O)Nc2nnc(S(N)(=O)=O)s2)cc1 [Compound 78] |  | 40 nM | 10 nM | 4.62 nM | 10.3 nM | 3.13 to 5.96 nM |  |  |  |  | Ki (hCA IX; [11]): 40 to 43 nM; Ki (hCA I; [12]): 7 to 12 nM; Ki (bCA IV; [6]): 5.2 to 10.3 nM
CC(C)c1cc(-c2ccccc2)cc(-c2ccccc2)[n+]1-c1ccc(S(=O)(=O)Nc2nnc(S(N)(=O)=O)s2)cc1 [Compound 83, 1-N-[5-Sulfamoyl-1,3,4-thiadiazol-2-yl-(aminosulfonyl-4-phenyl)]-2-iso-propyl-4,6-diphenylpyridinium perchlorate] | 12 to 35 nM | 32 nM | 6 nM | 3.74 nM | 4.5 nM | 3.13 to 5.96 nM |  |  |  |  | 
Cc1cc(C)[n+](Cc2ccc(S(N)(=O)=O)cc2)c(C(C)C)c1 [Compound 40] |  |  |  |  |  |  | 42 nM | 6000 nM | 50 nM | 80 nM | 
CCCc1cc(-c2ccccc2)cc(CCC)[n+]1-c1ccc(S(N)(=O)=O)cc1 [Compound 30] |  |  |  |  |  |  | 178 nM | 10000 nM | 120 nM | 194 nM | 
Cc1cc(-c2ccccc2)cc(C)[n+]1-c1ccc(S(N)(=O)=O)cc1 [Compound 28] | 6 to 54 nM |  |  |  |  |  | 48 nM | 7000 nM | 60 nM | 211 nM | 
CCc1cc(-c2ccccc2)cc(CC)[n+]1-c1ccc(S(N)(=O)=O)cc1 [Compound 29] |  |  |  |  |  |  | 43 nM | 6000 nM | 60 nM | 182 nM | Ki (hCA IX; [11]): 6 to 54 nM
CCCc1cc(-c2ccccc2)cc(-c2ccccc2)[n+]1-c1ccc(S(=O)(=O)Nc2nnc(S(N)(=O)=O)s2)cc1 [Compound 82, 1-N-[5-Sulfamoyl-1,3,4-thiadiazol-2-yl-(aminosulfonyl-4-phenyl)]-2-n-propyl-4,6-diphenylpyridinium perchlorate] |  | 40 nM | 8 nM | 3.9 nM | 6 nM | 3.13 to 5.96 nM |  |  |  |  | Ki (hCA I; [12]): 7 to 12 nM; Ki (bCA IV; [6]): 5.2 to 10.3 nM
CC(C)(C)c1cc(-c2ccccc2)cc(-c2ccccc2)[n+]1-c1ccc(S(=O)(=O)Nc2nnc(S(N)(=O)=O)s2)cc1 [Compound 85, 1-N-[5-Sulfamoyl-1,3,4-thiadiazol-2-yl-(aminosulfonyl-4-phenyl)]-2-tert-butyl-4,6-diphenylpyridinium perchlorate] | 40 to 43 nM | 43 nM | 12 nM | 4.11 nM | 7 nM | 3.13 to 5.96 nM |  |  |  |  | Ki (hCA I; [12]): 7 to 12 nM; Ki (bCA IV; [6]): 5.2 to 10.3 nM
Cc1cc(C(C)C)[n+](CCc2ccc(S(N)(=O)=O)cc2)c(C(C)C)c1 [Compound 57] |  |  |  |  |  |  | 49 nM | 3000 nM | 20 nM | 70 nM | 
CCCCc1cc(-c2ccccc2)cc(-c2ccccc2)[n+]1-c1ccc(S(=O)(=O)Nc2nnc(S(N)(=O)=O)s2)cc1 [Compound 84, 1-N-[5-Sulfamoyl-1,3,4-thiadiazol-2-yl-(aminosulfonyl-4-phenyl)]-2-n-butyl-4,6-diphenylpyridinium perchlorate] |  | 45 nM | 8 nM | 4.95 nM | 8.4 nM | 3.13 to 5.96 nM |  |  |  |  | Ki (hCA I; [12]): 7 to 12 nM; Ki (bCA IV; [6]): 5.2 to 10.3 nM
Cc1cc(C(C)C)[n+](-c2ccc(S(=O)(=O)Nc3nnc(S(N)(=O)=O)s3)cc2)c(C(C)C)c1 [Compound 73, 1-N-[5-Sulfamoyl-1,3,4-thiadiazol-2-yl-(aminosulfonyl-4-phenyl)]-2,6-di-iso-propyl-4-methylpyridinium perchlorate] |  | 16 nM | 7 nM | 1.54 nM | 4.7 nM | 0.2 to 1.61 nM |  |  |  |  | Ki (hCA IX; [11]): 12 to 35 nM; Ki (hCA I; [12]): 7 to 12 nM
CCCCc1cc(-c2ccccc2)cc(-c2ccccc2)[n+]1Cc1ccc(S(N)(=O)=O)cc1.[O-][Cl+3]([O-])([O-])[O-] [Compound 50] |  |  |  |  |  |  | 135 nM | 300000 nM | 595 nM | 2100 nM | 
